US6322789A, “HLA-restricted hepatitis B virus CTL epitopes” (Epimmune, Inc., priority 1995, dated 2001)
No end group written: not given here.

Columns and labels:
[1] = tested on: B10.D2 fibroblasts in the presence of NP 148-155 peptide; test: CTL immunogenicity of modifications and formulations of PR8-NP 148-155 (Table I); format: in vivo, Balb/c mouse; settings: in words
Description: Three weeks after immunization splenocytes were removed and stimulated in vitro with the flu 147-155 peptide. CTL activity was assayed one week later using ^51 Cr-labeled B10.D2 fibroblasts as targets. Target cells were tested in the absence of antigen, in the presence of Flu 147-155 peptide or following infection with influenza PR8 virus.
^b = CTL immunogenicity of various modifications and formulations of NP
result obtained from spleen cells derived from a single Balb/c mouse and
# the effector to target ratio (E:T) required to induce 40% antigen
specific lysis of ^51 Cr labeled B10D2 target cells in the presence of
ND148-155 peptide; +++ E:T below 10:1; ++ E + T between 10 + 1 and […]

[2] = tested on: Jurkat A2-1/Kb target cells; Jy target cells; Jy cells transfected with HBV core; parameters: species or system HLA-A2-1/kb transgenic mice; settings: mouse, in vivo, sc
[3] = tested on: Jurkat A2.1/K^b target cells; test: CTL lysis after restimulation of splenocytes from mice primed with HBV-loaded spleen cells (Example I); format: cell-based, A2.1/K^b transgenic mice (effector cells); settings: for representation of CTL epitopes: conclusion of Example I, FIGS. 1 and 2; for CTL lysis of Jurkat A2/K^b target cells: individual peptides, FIG. 1 panels E through H
[4] = tested on: Jurkat A2.1/K^b target cells; test: CTL induction from splenocytes of mice primed subcutaneously with purified HBV in IFA (Example II); format: cell-based, A2.1/K^b transgenic mice (effector cells); settings: for ability to induce in vitro CTL from splenocytes of HBV-primed mice: FIGS. 3 and 4
[5] = tested on: Jurkat A2/K^b target cells; test: In vivo HBc 18-27-specific CTL priming by CTL and T helper epitopes (Example IV); parameters: species or system HLA-A2.1/K^b transgenic mice; settings: for magnitude of HBc18-27-specific CTL activity relative to other immunogens: comparison in words; for requirement of prior T helper priming for CTL priming: without previous priming with 875.23 in CFA; for HBc18-27-specific CTL response: 100 μg subcutaneously, transgenic mice
Description: Animals were primed subcutaneously with 100 μg of 875.23 (T helper epitope) in Complete Freund's Adjuvant (CFA) followed 9 days later (subcutaneously) with […]. Splenocytes were removed 3 weeks later, cultured for 6 days in the presence of LPS-blasts that had been incubated with the CTL epitope (875.15), 100 μg for 2 hrs before being washed and added to the culture as a source of antigen presenting cells. The presence of HBc 18-27 (875.15)-specific CTL was determined using a standard 6 hr […] release assay with Jurkat A2.1/K^b cells as targets.
This example describes experiments which define the relative in vivo HBV-specific CTL priming efficiency of peptides expressing HBV CTL epitopes alone, CTL epitopes mixed with peptides containing T helper epitopes or CTL epitopes physically linked to T helper epitopes.
Nine days later each of the following peptides were injected subcutaneously into two unprimed and two helper-primed mice, 100 μg/mouse in incomplete Freund's adjuvant (IFA).
Three weeks after priming with the CTL epitope, splenocytes were in vitro restimulated with LPS blasts coated with HBc 18-27 (coating was achieved by incubating 30×10^6 LPS blasts with 100 μg of HBc18-27 in one ml of medium; after 1-2 hr at 37° C., the cells were washed). After 6 days, effector cells were assayed for lytic activity against ^51 Cr labelled Jurkat A2 /K^b target cells in the presence or absence of HBc18-27.

ovalbumin-specific CTL = settings: cited from earlier work
[6] = listed as linked peptides without spacer

Substance: (PAM)2 KSS-ISQAVHAAHAEINE-AAA-TYQRTRALV ({(PAM)2}-KSSISQAVHAAHAEINEAAATYQRTRALV) [Peptide 932.05]
- comparison of constructs and formulations [1]: superior when injected in saline or Alum compared to all of the other combinations

Substance: (PAM)2 KSSISQAVHAAHAEINE-TYQRTRALV ({(PAM)2}-KSSISQAVHAAHAEINETYQRTRALV) [Peptide 932.04]
- comparison of constructs and formulations [1]: superior when injected in saline or Alum compared to all of the other combinations

Substance: Ac-Gln-Tyr-Ile-Lys-Ala-Asn-Ser-Lys-Phe-Ile-Gly-Ile-Thr-Glu-Ala-Ala-Ala-Phe-Leu-Pro-Ser-Asp-Phe-Phe-Pro-Ser-Val-OH (Ac-QYIKANSKFIGITEAAAFLPSDFFPSV-OH) [Peptide 934.02]
- CTL response specific for HBc 18-27 [2]: induction of a CTL response specific for HBc 18-27

Substance: Asn-Cys-Thr-Cys-Ile-Pro-Ile-Pro-Ser-Ser-Trp-Ala-Phe-Gly-Lys-Phe-Leu-Trp-Glu-Trp [Peptide 799.08]
- CTL response and its MHC class I mediation [3]: induces a CTL response which is mediated by at least the MHC class I molecule HLA-A2
- representation of CTL epitopes [3]: clearly represent CTL epitopes
- CTL lysis of Jurkat A2/K^b target cells [3]: induced CTL lysis of Jurkat A2 /K^b target cells above background

Substance: ISQAVHAAHAEINE-AAA-TYQRTRALV (ISQAVHAAHAEINEAAATYQRTRALV) [Peptide 932.03]
- comparison of constructs and formulations [1]: superior to mixing the T helper+CTL (i.e., non-linked) and worked well in IFA, but not well in saline or Alum

Substance: ISQAVHAAHAEINE-TYQRTRALV (ISQAVHAAHAEINETYQRTRALV) [Peptide 932.02]
- comparison of constructs and formulations [1]: superior to mixing the T helper+CTL (i.e., non-linked) and worked well in IFA, but not well in saline or Alum

Substance: LSPTVWLSVI [Peptide 884.02]
- recognition of truncation peptides by CTL raised against the larger peptide [4]: recognized by the CTL raised against the larger epitopes
- ability to induce in vitro CTL from splenocytes of HBV-primed mice [4]: clearly able to induce in vitro CTL

Substance: LSPTVWLSVIWMMWYWGPSL [Peptide 799.10]
- representation of CTL epitopes [3]: defined as containing CTL epitopes
- representation of CTL epitopes ([3]; listed as HBenv 349-368): clearly represent CTL epitopes
- CTL lysis of Jurkat A2/K^b target cells [3]: induced CTL lysis of Jurkat A2 /K^b target cells above background
- ability to induce in vitro CTL from splenocytes of HBV-primed mice [4]: clearly able to induce in vitro CTL

Substance: MGLKFRQLLW [Peptide 883.03]
- recognition of truncation peptides by CTL raised against the larger peptide [4]: recognized by the CTL raised against the larger epitopes
- ability to induce in vitro CTL from splenocytes of HBV-primed mice [4]: clearly able to induce in vitro CTL

Substance: NMGLKFRQLL [Peptide 883.02]
- recognition of truncation peptides by CTL raised against the larger peptide [4]: recognized by the CTL raised against the larger epitopes
- ability to induce in vitro CTL from splenocytes of HBV-primed mice [4]: clearly able to induce in vitro CTL

Substance: TPPAYRPPNAPILAAAFLPSDFFPSV-NH2 [Peptide 902.02]
- magnitude of HBc18-27-specific CTL activity relative to other immunogens [5]: greatest HBc18-27 (875.15)-specific CTL activity was detected
- magnitude of HBc18-27-specific CTL activity relative to other immunogens ([5]; listed as T helper and CTL HBV peptides were linked by a Ala-Ala-Ala spacer): specific CTL activity greater than induction of specific CTL activity with the linked peptides without spacer
- magnitude of HBc18-27-specific CTL activity relative to other immunogens ([5]; listed as T helper and CTL epitopes via an alanine-alanine-alanine spacer): specific CTL activity greater than that detected by linking the T helper and CTL determinants alone
- requirement of prior T helper priming for CTL priming [5]: previous priming of helper T cells was not required

Substance: TPPAYRPPNAPILFLPSDFFPSV-NH2 [Peptide 902.01]
- HBc18-27-specific CTL response [5]: HBc-specific (875.15) CTL activity was detected
- HBc18-27-specific CTL response [5, 6]: induce specific CTL priming of animals in all animals studied
- animals with HBc18-27-specific CTL response ([5]; 100 μg/mouse in IFA subcutaneously): 100%
- magnitude of HBc18-27-specific CTL activity relative to other immunogens ([5]; listed as T helper epitope linked to the CTL epitope): greater than that detected when the epitopes were administered non-linked
- magnitude of HBc18-27-specific CTL activity relative to other immunogens [5, 6]: at levels which were greater than when the CTL peptide and T helper peptide were administered unlinked
- requirement of prior T helper priming for CTL priming [5]: previous priming of helper T cells was not required

Substance: Thr-Asn-Met-Gly-Leu-Lys-Phe-Arg-Gln-Leu-Leu-Trp-Phe-His-Ile-Ser-Cys-Leu-Thr-Phe [Peptide 802.03]
- CTL response and its MHC class I mediation [3]: induces a CTL response which is mediated by at least the MHC class I molecule HLA-A2.1
- representation of CTL epitopes [3]: defined as containing CTL epitopes
- representation of CTL epitopes ([3]; listed as HBc 91-110): clearly represent CTL epitopes
- CTL lysis of Jurkat A2/K^b target cells [3]: induced CTL lysis of Jurkat A2 /K^b target cells above background
- ability to induce in vitro CTL from splenocytes of HBV-primed mice [4]: clearly able to induce in vitro CTL

Substance: Thr-Pro-Pro-Ala-Tyr-Arg-Pro-Pro-Asn-Ala-Pro-Ile-Leu (TPPAYRPPNAPIL) [Peptide 875.23]
- HBc18-27-specific CTL response [5]: no HBc18-27-specific CTL response is detected
- HBc18-27-specific CTL response ([5]; listed as T helper peptide): did not induce HBc-specific CTL

Substance: ovalbumin: ovalbumin (OVA) in IFA
- generation of CTL (ovalbumin-specific CTL; i.v. or i.p.): generally does not lead to the generation of CTL
- ovalbumin-specific CTL response (ovalbumin-specific CTL; in IFA subcutaneously): induces an ovalbumin-specific CTL response in mice
